According to patent US9656955B2, “Pyrrolidine derivatives, pharmaceutical compositions containing them, and their use in therapy” (AbbVie Deutschland GmbH & Co. KG, priority 2013, dated 2017):

The compounds below were run against human GlyT1c transporter (Homo sapiens (Human), UniProt P48067) (assay: Radioligand binding assays using recombinant CHO cell membranes expressing human GlyT1). Conditions: not given.
Chain of human GlyT1c transporter (P48067 whole entry): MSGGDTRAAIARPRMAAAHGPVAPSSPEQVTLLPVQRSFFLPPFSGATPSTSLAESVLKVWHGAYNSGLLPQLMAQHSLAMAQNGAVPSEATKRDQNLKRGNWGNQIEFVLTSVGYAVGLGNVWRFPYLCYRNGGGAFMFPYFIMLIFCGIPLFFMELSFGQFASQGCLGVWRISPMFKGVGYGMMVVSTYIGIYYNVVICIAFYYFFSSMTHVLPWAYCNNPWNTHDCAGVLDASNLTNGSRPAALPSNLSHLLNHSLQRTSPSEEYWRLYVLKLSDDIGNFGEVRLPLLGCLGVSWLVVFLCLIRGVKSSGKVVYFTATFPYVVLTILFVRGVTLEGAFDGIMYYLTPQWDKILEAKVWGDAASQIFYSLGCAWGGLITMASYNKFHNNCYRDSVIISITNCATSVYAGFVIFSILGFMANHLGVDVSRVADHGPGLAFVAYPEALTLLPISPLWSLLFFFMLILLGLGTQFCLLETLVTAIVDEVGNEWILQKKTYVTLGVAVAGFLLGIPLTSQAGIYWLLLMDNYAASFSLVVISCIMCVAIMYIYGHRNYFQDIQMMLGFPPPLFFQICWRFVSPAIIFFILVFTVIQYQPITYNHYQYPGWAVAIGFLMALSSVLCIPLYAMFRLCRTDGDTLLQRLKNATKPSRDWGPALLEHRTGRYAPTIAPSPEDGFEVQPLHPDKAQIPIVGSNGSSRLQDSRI

Question: `Cn1cnc(S(=O)(=O)N2C[C@@H](C(=O)c3ccc(Cl)c(F)c3)[C@H](c3ccc(F)cc3)C2)c1` (relative stereo) [Example 319, (4-Chloro-3-fluorophenyl){trans-4-(4-fluorophenyl)-1-[(1-methyl-1H-imidazol-4-yl)sulfonyl]pyrrolidin-3-yl}methanone] was tested. Which Ki did it give?
Answer: The Ki was no more than 0.1 µM.

Same assay, conditions: radioligand binding, human GlyT1c transporter-expressing CHO cell membranes

Question: With `O=S(=O)(C1CCC1)N1CC(Nc2ccc(F)c(F)c2)C(c2ccccc2)C1` (stereo not drawn) [Example 509, 1-(cyclobutylsulfonyl)-N-(3,4-difluorophenyl)-4-phenylpyrrolidin-3-amine] as the compound, how does the Ki read?
Answer: Its Ki is no more than 10 µM.

Question: How did the Ki turn out when `Cn1cnc(S(=O)(=O)N2CC(c3ccccc3)N(Cc3cccc(Cl)c3)C2=O)c1` (stereo not drawn) [Example 343, 3-(3-chlorobenzyl)-1-[(1-methyl-1H-imidazol-4-yl)sulfonyl]-4-phenylimidazolidin-2-one] was run?
Answer: Its Ki is no more than 10 µM.

Question: Which Ki does the source give for `Cn1cnc(S(=O)(=O)N2C[C@H](NCc3nc(-c4ccc(F)cc4)cs3)[C@@H](c3ccccc3)C2)c1` [Example 460, (3R,4S)—N-{[4-(4-fluorophenyl)-1,3-thiazol-2-yl]methyl}-1-[(1-methyl-1H-imidazol-4-yl)sulfonyl]-4-phenylpyrrolidin-3-amine] here?
Answer: Its Ki is no more than 10 µM.

Question: Which Ki does the source give for `Cc1cc(N[C@H]2CN(S(=O)(=O)c3cn(C)cn3)C[C@@H]2c2ccccc2)ncc1F` [Example 574, 5-fluoro-4-methyl-N-{(3R,4S)-1-[(1-methyl-1H-imidazol-4-yl)sulfonyl]-4-phenylpyrrolidin-3-yl}pyridin-2-amine] here?
Answer: The Ki was no more than 0.1 µM.

Question: For `CC(C)OCCCNC(=O)[C@@H]1CN(S(=O)(=O)c2cn(C)cn2)C[C@H]1c1ccc(F)cc1` [Example 577, (3S,4R)-4-(4-fluorophenyl)-1-[(1-methyl-1H-imidazol-4-yl)sulfonyl]-N-[3-(propan-2-yloxy)propyl]pyrrolidine-3-carboxamide], which Ki is on record?
Answer: The Ki was greater than 10 µM.

Question: With `Cc1cccc2ncc(CN[C@H]3CN(S(=O)(=O)c4cn(C)cn4)C[C@@H]3c3ccccc3)n12` [Example 563, (3R,4S)-1-[(1-methyl-1H-imidazol-4-yl)sulfonyl]-N-[(5-methylimidazo[1,2-a]pyridin-3-yl)methyl]-4-phenylpyrrolidin-3-amine] as the compound, how does the Ki read?
Answer: Its Ki is no more than 10 µM.

Question: For `Cc1cc(S(=O)(=O)N2CC(Nc3ccc(F)c(F)c3)C(c3ccccc3)C2)n(C)n1` (stereo not drawn) [Example 482, N-(3,4-difluorophenyl)-1-[(1,3-dimethyl-1H-pyrazol-5-yl)sulfonyl]-4-phenylpyrrolidin-3-amine], which Ki is on record?
Answer: The Ki was no more than 10 µM.

Question: For `CCCOc1cc(N[C@H]2CN(S(=O)(=O)c3cn(C)cn3)C[C@@H]2c2ccccc2)ncn1` [Example 622, N-{(3R,4S)-1-[(1-methyl-1H-imidazol-4-yl)sulfonyl]-4-phenylpyrrolidin-3-yl}-6-propoxypyrimidin-4-amine], which Ki is on record?
Answer: Its Ki is no more than 0.1 µM.

Question: `Cn1cnc(S(=O)(=O)N2C[C@@H](NC(=O)c3ccc(C(F)(F)F)cc3)[C@@](O)(c3ccccc3)C2)c1` (relative stereo) [Example 538, N-{Trans-4-hydroxy-1-[(1-methyl-1H-imidazol-4-yl)sulfonyl]-4-phenylpyrrolidin-3-yl}-4-(trifluoromethyl)benzamide] was tested. Which Ki did it give?
Answer: The Ki was no more than 10 µM.

Question: `Cc1nn(C)c(C)c1S(=O)(=O)N1CC(Nc2ccc(F)c(F)c2)C(c2ccccc2)C1` (stereo not drawn) [Example 508, N-(3,4-difluorophenyl)-4-phenyl-1-[(1,3,5-trimethyl-1H-pyrazol-4-yl)sulfonyl]pyrrolidin-3-amine] was tested. Which Ki did it give?
Answer: Its Ki is no more than 10 µM.

Question: For `Cn1cc(S(=O)(=O)N2CC(Nc3ccc(F)c(F)c3)C(c3ccccc3)C2)c(C(F)(F)F)n1` (stereo not drawn) [Example 476, N-(3,4-difluorophenyl)-1-{[1-methyl-3-(trifluoromethyl)-1H-pyrazol-4-yl]sulfonyl}-4-phenylpyrrolidin-3-amine], which Ki is on record?
Answer: Its Ki is no more than 10 µM.

Question: How did the Ki turn out when `Cc1ncc(S(=O)(=O)N2C[C@H](Nc3ccc(F)c(F)c3)[C@@H](c3ccc(F)cc3)C2)n1C` [Example 757, (3R,4S)—N-(3,4-difluorophenyl)-1-[(1,2-dimethyl-1H-imidazol-5-yl)sulfonyl]-4-(4-fluorophenyl)pyrrolidin-3-amine] was run?
Answer: Its Ki is no more than 10 µM.

Question: With `Cn1cnc(S(=O)(=O)N2C[C@H](Nc3cccc(C#N)c3)[C@@H](c3ccc(F)cc3)C2)c1` [Example 380, 3-({(3R,4S)-4-(4-fluorophenyl)-1-[(1-methyl-1H-imidazol-4-yl)sulfonyl]pyrrolidin-3-yl}-amino)benzonitrile] as the compound, how does the Ki read?
Answer: The Ki was no more than 0.1 µM.

Question: With `CC1(C)C(=O)Nc2ccc(S(=O)(=O)N3CC(Nc4ccc(F)c(F)c4)C(c4ccccc4)C3)cc21` (stereo not drawn) [Example 478, 5-({3-[(3,4-difluorophenyl)amino]-4-phenylpyrrolidin-1-yl}sulfonyl)-3,3-dimethyl-1,3-dihydro-2H-indol-2-one] as the compound, how does the Ki read?
Answer: Its Ki is no more than 10 µM.

Question: How did the Ki turn out when `Cn1cnc(S(=O)(=O)N2C[C@H](Nc3cc(-c4ccc(F)cc4)ncn3)[C@@H](c3ccc(F)cc3)C2)c1` [Example 728, 6-(4-fluorophenyl)-N-{(3R,4S)-4-(4-fluorophenyl)-1-[(1-methyl-1H-imidazol-4-yl)sulfonyl]pyrrolidin-3-yl}pyrimidin-4-amine] was run?
Answer: Its Ki is no more than 0.01 µM.

Question: How did the Ki turn out when `CCCCOc1cc(N[C@H]2CN(S(=O)(=O)c3cn(C)cn3)C[C@@H]2c2ccccc2)ncn1` [Example 623, 6-butoxy-N-{(3R,4S)-1-[(1-methyl-1H-imidazol-4-yl)sulfonyl]-4-phenylpyrrolidin-3-yl}pyrimidin-4-amine] was run?
Answer: The Ki was no more than 0.1 µM.

Question: Which Ki does the source give for `Cn1cnc(S(=O)(=O)N2C[C@H](NCc3csc(Cl)n3)[C@@H](c3ccccc3)C2)c1` [Example 562, (3R,4S)—N-[(2-chloro-1,3-thiazol-4-yl)methyl]-1-[(1-methyl-1H-imidazol-4-yl)sulfonyl]-4-phenylpyrrolidin-3-amine] here?
Answer: The Ki was no more than 10 µM.

Question: For `Cn1cnc(S(=O)(=O)N2C[C@H](Nc3cc(-c4ccc(Cl)cc4)ncn3)[C@@H](c3ccc(F)cc3)C2)c1` [Example 730, 6-(4-chlorophenyl)-N-{(3R,4S)-4-(4-fluorophenyl)-1-[(1-methyl-1H-imidazol-4-yl)sulfonyl]pyrrolidin-3-yl}pyrimidin-4-amine], which Ki is on record?
Answer: Its Ki is no more than 0.01 µM.

Question: Which Ki does the source give for `Cn1cc(S(=O)(=O)N2C[C@H](Nc3ccc(F)c(OC(F)(F)F)c3)[C@@H](c3ccc(F)cc3)C2)nn1` [Example 838, (3R,4S)-4-(4-fluorophenyl)-N-[4-fluoro-3-(trifluoromethoxy)phenyl]-1-[(1-methyl-1H-1,2,3-triazol-4-yl)sulfonyl]pyrrolidin-3-amine] here?
Answer: The Ki was no more than 0.01 µM.

Question: `Cn1cnc(S(=O)(=O)N2C[C@H](NCC3CCOC(C)(C)C3)[C@@H](c3ccccc3)C2)c1` (stereo partly drawn) [Example 557, (3R,4S)—N-[(2,2-dimethyltetrahydro-2H-pyran-4-yl)methyl]-1-[(1-methyl-1H-imidazol-4-yl)sulfonyl]-4-phenylpyrrolidin-3-amine] was tested. Which Ki did it give?
Answer: Its Ki is no more than 10 µM.

Question: For `Cn1cnc(S(=O)(=O)N2C[C@H](Nc3ccc(Cl)c(C(F)(F)F)c3)[C@@H](c3ccc(F)cc3)C2)c1` [Example 540, (3R,4S)—N-[4-chloro-3-(trifluoromethyl)phenyl]-4-(4-fluorophenyl)-1-[(1-methyl-1H-imidazol-4-yl)sulfonyl]pyrrolidin-3-amine], which Ki is on record?
Answer: The Ki was no more than 0.1 µM.

Question: For `O=S(=O)(c1ccc(Cl)s1)N1CC(Nc2ccc(F)c(F)c2)C(c2ccccc2)C1` (stereo not drawn) [Example 511, 1-[(5-chlorothiophen-2-yl)sulfonyl]-N-(3,4-difluorophenyl)-4-phenylpyrrolidin-3-amine], which Ki is on record?
Answer: The Ki was no more than 10 µM.

Question: For `Cn1cnc(S(=O)(=O)N2C[C@H](Nc3ccnc(N4CCOCC4)n3)[C@@H](c3ccccc3)C2)c1` [Example 420, N-{(3R,4S)-1-[(1-methyl-1H-imidazol-4-yl)sulfonyl]-4-phenylpyrrolidin-3-yl}-2-(morpholin-4-yl)pyrimidin-4-amine], which Ki is on record?
Answer: The Ki was no more than 10 µM.

Question: Which Ki does the source give for `Cn1cnc(S(=O)(=O)N2CC(c3ccc(F)cc3)C(O)(Cc3ccccc3)C2)c1` (stereo not drawn) [Example 382, 3-benzyl-4-(4-fluorophenyl)-1-[(1-methyl-1H-imidazol-4-yl)sulfonyl]pyrrolidin-3-ol] here?
Answer: The Ki was no more than 0.1 µM.

Question: `Cc1cc(S(=O)(=O)N2CC(Nc3ccc(F)c(F)c3)C(c3ccccc3)C2)c(C)o1` (stereo not drawn) [Example 488, N-(3,4-difluorophenyl)-1-[(2,5-dimethylfuran-3-yl)sulfonyl]-4-phenylpyrrolidin-3-amine] was tested. Which Ki did it give?
Answer: The Ki was no more than 10 µM.

Question: For `CCCCCCN[C@H]1CN(S(=O)(=O)c2cn(C)cn2)C[C@@H]1c1ccccc1` [Example 548, (3R,4S)—N-hexyl-1-[(1-methyl-1H-imidazol-4-yl)sulfonyl]-4-phenylpyrrolidin-3-amine], which Ki is on record?
Answer: Its Ki is no more than 0.01 µM.

Question: With `Cn1cnc(S(=O)(=O)N2C[C@H](NC(=O)c3ccc(Cl)nn3)[C@@H](c3ccccc3)C2)c1` [Example 419, 6-chloro-N-{(3R,4S)-1-[(1-methyl-1H-imidazol-4-yl)sulfonyl]-4-phenylpyrrolidin-3-yl}pyridazine-3-carboxamide] as the compound, how does the Ki read?
Answer: Its Ki is no less than 10 µM.

Question: `Cc1ccc(-c2cc(N[C@H]3CN(S(=O)(=O)c4cn(C)cn4)C[C@@H]3c3ccc(F)cc3)ncn2)cc1` [Example 725, N-{(3R,4S)-4-(4-fluorophenyl)-1-[(1-methyl-1H-imidazol-4-yl)sulfonyl]pyrrolidin-3-yl}-6-(4-methylphenyl)pyrimidin-4-amine] was tested. Which Ki did it give?
Answer: Its Ki is no more than 0.01 µM.

Question: With `Cn1cnc(S(=O)(=O)N2C[C@H](Nc3cnc(C4CCC4)cn3)[C@@H](c3ccccc3)C2)c1` [Example 411, 5-cyclobutyl-N-{(3R,4S)-1-[(1-methyl-1H-imidazol-4-yl)sulfonyl]-4-phenylpyrrolidin-3-yl}pyrazin-2-amine] as the compound, how does the Ki read?
Answer: Its Ki is no more than 10 µM.

Question: For `Cn1cnc(S(=O)(=O)N2C[C@@H]([C@@H]3CCCOC3)[C@H](Nc3cccc(OCC(F)(F)F)c3)C2)c1` (mixture of isomers) [Example 785, trans-1-[(1-methyl-1H-imidazol-4-yl)sulfonyl]-4-[(3S)-tetrahydro-2H-pyran-3-yl]-N-[3-(2,2,2-trifluoroethoxy)phenyl]pyrrolidin-3-amine], which Ki is on record?
Answer: Its Ki is no more than 0.1 µM.

Question: How did the Ki turn out when `Cn1nccc1S(=O)(=O)N1CC(Nc2ccc(F)c(F)c2)C(c2ccccc2)C1` (stereo not drawn) [Example 516, N-(3,4-difluorophenyl)-1-[(1-methyl-1H-pyrazol-5-yl)sulfonyl]-4-phenylpyrrolidin-3-amine] was run?
Answer: The Ki was no more than 10 µM.

Question: With `Cn1cnc(S(=O)(=O)N2C[C@H](NCCCC3CC3)[C@@H](c3ccccc3)C2)c1` [Example 573, (3R,4S)—N-(3-cyclopropylpropyl)-1-[(1-methyl-1H-imidazol-4-yl)sulfonyl]-4-phenylpyrrolidin-3-amine] as the compound, how does the Ki read?
Answer: The Ki was no more than 0.1 µM.
